Patent US4599331A, “Etianic acids as antiangiogenics” (Syntex (U.S.A.) Inc., priority 1984, dated 1986)

Key:
glucocorticoid receptor = molecular target: T1, glucocorticoid receptor (Rattus norvegicus, UniProt P06536); assay: competition for 3H-dexamethasone binding sites in HTC cytosol (glucocorticoid receptor affinity); conditions: Table 1; displacement of 25 nM 3H-DEX, HTC (rat hepatoma) cytosol, 3 hours on ice
T1 construct: endogenous in cells; host or cells: HTC (rat hepatoma) cells, 100,000 x g cytosol
T1 sequence (P06536 1-795): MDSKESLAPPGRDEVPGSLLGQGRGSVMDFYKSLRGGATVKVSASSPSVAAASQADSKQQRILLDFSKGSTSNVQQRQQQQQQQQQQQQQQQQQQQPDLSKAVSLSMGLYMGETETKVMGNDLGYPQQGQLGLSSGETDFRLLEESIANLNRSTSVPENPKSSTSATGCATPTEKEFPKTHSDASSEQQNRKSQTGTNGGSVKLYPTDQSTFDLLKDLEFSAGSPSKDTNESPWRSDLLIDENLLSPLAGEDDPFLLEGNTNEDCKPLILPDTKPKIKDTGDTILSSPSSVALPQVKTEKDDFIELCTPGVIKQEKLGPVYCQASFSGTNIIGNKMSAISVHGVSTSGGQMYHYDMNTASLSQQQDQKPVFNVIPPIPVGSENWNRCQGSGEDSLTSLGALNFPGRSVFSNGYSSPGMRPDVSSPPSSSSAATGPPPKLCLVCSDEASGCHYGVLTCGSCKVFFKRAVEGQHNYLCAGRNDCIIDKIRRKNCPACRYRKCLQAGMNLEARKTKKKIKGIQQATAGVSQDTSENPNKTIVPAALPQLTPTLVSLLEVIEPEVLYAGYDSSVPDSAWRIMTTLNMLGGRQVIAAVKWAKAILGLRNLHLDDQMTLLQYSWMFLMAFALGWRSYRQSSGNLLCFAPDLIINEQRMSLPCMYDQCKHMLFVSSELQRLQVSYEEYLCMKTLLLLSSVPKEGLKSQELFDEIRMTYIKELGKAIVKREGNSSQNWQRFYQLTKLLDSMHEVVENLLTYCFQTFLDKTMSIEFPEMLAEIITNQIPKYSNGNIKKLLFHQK
Method: LE II (mouse lung capillary endothelial) or HTC (rat hepatoma) cells were grown in Dulbecco's modified Eagle's (DMEM) medium plus 10% fetal calf serum (FCS), in 150 cm^2 T-flasks. Approximately 20 flasks of LE II cells or 10 flasks of HTC cells were needed for a 60-80 sample assay.
Cell monolayers were washed 3 times with Phosphate Buffered Saline (PBS) and harvested by scraping with a rubber policeman into an ice-cold sonication buffer of 0.25M sucrose; 10 mM Tris-HCl, pH 7.4; 5 mM ethylenediaminetetraacetic acid (EDTA); 5 mM dithiothereitol; and 10 mM sodium molybdate. All subsequent steps were performed at 4° C. The cells were pooled into a final volume of 8-12 mls, broken by sonication for 45 seconds with the microtip of a Branson sonifier at setting #3 and the residue was then centrifuged at 100,000 X g for 30 minutes with a Beckman L8-50, Ti50 rotor, at 40,000 rpm. […] Incubations were peformed in a final volume of 1 ml in 1.5 ml Eppendorf centrifuge tubes for 3 hours on ice.
Fine Sephadex G-50 gel was swollen and equilibrated against column buffer of 100 mM Tris-HCl, pH 7.8; and 3 mM CaCl2. Columns were poured to a final packed volume of 4.5 ml in 5 ml plastic disposable pipets.
The packed columns were then drained of buffer and the 1 ml incubated samples were applied to each. The samples were washed into the columns with 0.5 ml of column buffer, and the exclusion volumes containing the protein peaks were eluted with another 1 ml of column buffer and collected. Aliquots of 750 μl of Biorad protein reagent were diluted 1:5 in H2 O. OD630 nm reading were compared with those obtained for a bovine serum albumin standard curve.

[1] = tested on: alkaline phosphatase (APb); assay: alkaline phosphatase (APb) induction in LE II cells; type: cell-based, mouse; conditions: Mus musculus, Table 1, about 65 hours, relative to dexamethasone = 1, read-out: Efficacy (DEX = 1) Alk P
Method: This is another standard test for glucocorticoid activity.
LE II cells were grown in DMEM plus 10% FCS, at 37° C., in a 10% carbon dioxide atmosphere. Confluent monolayers of cells were trypsinized and seeded at a 1:15 dilution into 6-well Costar cluster dishes. […] In all experiments, DEX, at concentrations of 10^-9 to 10^-6 M, was added to some of the wells as a positive control.
Cell monolayers were washed with PBS and harvested by scraping with a rubber policeman into 400 μl of a buffer of 20 mM Tris-HCl at pH 7.4; 2 mM MgCl2; and 150 mM NaCl together with 1% Triton X-100. Samples were transferred into 1.5 ml Eppendorf centrifuge tubes and placed on ice. The tubes were first vortexed and then centrifuged in the Eppendorf minicentrifuge for 2 minutes. Duplicate 100 μl aliquots of supernatant were placed into 12×75 mm glass test tubes for determination of APb activity, while the rest was saved for protein determination. […] The tubes were incubated in a 37° C. water bath for between 20 to 50 minutes, depending on the activity of the samples. The APb reaction was terminated by the addition of 0.5 ml of […]. The tubes were mixed and 200 μl portions from each tube were transferred in triplicate to a 96 well microtiter plate. The OD410 nm of each well was then determined using a Dynatech plate reader.
[…] of the cell supernatant were transferred to 96 well microtiter plates for protein determination by a modification of the Lowry method. […] The plates were shaken for 1 hour and then the OD630 was determined using a Dynatech plate reader. The protein content for each sample was calculated by comparing the average OD630 reading with those obtained for a bovine serum albumin standard curve.
The alkaline phosphatase activity of in each sample was expressed as μmoles product formed per minute per mg protein in the Alk P column of Tables 1 and 2. Results are expressed as the induction ability of a compound as compared to dexamethasone.

| Compound | IC50 (glucocorticoid receptor) | Emax [1] |
| --- | --- | --- |
| CCC(=O)O[C@]1(C(=O)OC)[C@@H](C)C[C@H]2[C@@H]3CCC4=CC(=O)C=C[C@]4(C)[C@@]3(F)[C@@H](O)C[C@@]21C [compound 1] | 5 nM | 100% |
| CCC(=O)O[C@]1(C(=O)OC)[C@@H](C)C[C@H]2[C@@H]3CC(F)C4=C(F)C(=O)C=C[C@]4(C)[C@@]3(F)[C@@H](O)C[C@@]21C (stereo partly drawn) [compound 3] | 15 nM | 100% |
| CCCC(=O)O[C@]1(C(=O)OC)[C@@H](C)C[C@H]2[C@@H]3CC(F)C4=CC(=O)C=C[C@]4(C)[C@@]3(F)[C@@H](O)C[C@@]21C (stereo partly drawn) [compound 4] | 0.25 nM | 170% |
| CCC(=O)O[C@]1(C(=O)OC)[C@H](C)C[C@H]2[C@@H]3CC(F)C4=CC(=O)C=C[C@]4(C)[C@@]3(F)[C@@H](O)C[C@@]21C (stereo partly drawn) [compound 7] | 4 nM | 110% |
| CCC(=O)O[C@]1(C(=O)OC)[C@H](C)C[C@H]2[C@@H]3CC(F)C4=C(F)C(=O)C=C[C@]4(C)[C@@]3(F)[C@@H](O)C[C@@]21C (stereo partly drawn) [compound 8] | 0.25 nM | 120% |
| CCCC(=O)O[C@]1(C(=O)OC)[C@H](C)C[C@H]2[C@@H]3CC(F)C4=CC(=O)C=C[C@]4(C)[C@@]3(F)[C@@H](O)C[C@@]21C (stereo partly drawn) [compound 9] | 0.025 nM | 90% |
